According to US20240158446A1, “CYCLIC COMPOUND HAVING SELECTIVE INHIBITORY ACTION ON KRAS OVER HRAS AND NRAS” (CHUGAI SEIYAKU KABUSHIKI KAISHA, priority 2021, published 2024):
Where two headings read alike, the source gives them in different places. Where a SMILES comes first, the peptide text is derived from it. Bridges are numbered along the chain shown (N, C = ends). [ ]: non-standard residue; d: D form. The star is where a group is joined. hPhe(3-Cl-4-CF3) = N[C@@H](CCc1ccc(C(F)(F)F)c(Cl)c1)C(=O)O; NPrPhe(4-CF3) = CCCN[C@@H](Cc1ccc(C(F)(F)F)cc1)C(=O)O; NMePhe(4-Me) = CN[C@@H](Cc1ccc(C)cc1)C(=O)O; NMeGly(cPent) = CN[C@H](C(=O)O)C1CCCC1; Pro(4,4-F2) = O=C(O)[C@@H]1CC(F)(F)CN1; Hyp = O=C(O)[C@@H]1C[C@@H](O)CN1; NMeD = CN[C@@H](CC(=O)O)C(=O)O; NMeL = CN[C@@H](CC(C)C)C(=O)O; Morpholide = C1CN(*)CCO1; NMeA = CN[C@@H](C)C(=O)O; Ac5c = NC1(C(=O)O)CCCC1; Aze = O=C(O)[C@@H]1CCN1; Abu = CC[C@H](N)C(=O)O; Ac4c = NC1(C(=O)O)CCC1; NBuGly = CCCCNCC(=O)O; NEtG = CCNCC(=O)O; Sar = CNCC(=O)O

Tests used:
[1] = molecular target: GDP-bound NRAS wild-type protein (Homo sapiens, UniProt P01111); experiment: Binding to NRAS by surface plasmon resonance (SPR), Single Cycle Kinetics; conditions: SPR, GDP-bound NRAS wild-type protein vs GDP-bound KRAS wild-type protein
GDP-bound NRAS wild-type protein, sequence (P01111 whole entry): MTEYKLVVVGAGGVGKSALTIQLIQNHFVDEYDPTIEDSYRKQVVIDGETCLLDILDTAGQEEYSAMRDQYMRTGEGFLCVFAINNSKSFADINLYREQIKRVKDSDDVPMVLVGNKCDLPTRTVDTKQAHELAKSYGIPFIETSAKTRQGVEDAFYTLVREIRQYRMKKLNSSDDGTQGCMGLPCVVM

[2] = molecular target: GDP-bound HRAS wild-type protein (Homo sapiens, UniProt P01112); experiment: Binding to HRAS by surface plasmon resonance (SPR), Single Cycle Kinetics; conditions: SPR, GDP-bound HRAS wild-type protein vs GDP-bound KRAS wild-type protein
GDP-bound HRAS wild-type protein, sequence (P01112 whole entry): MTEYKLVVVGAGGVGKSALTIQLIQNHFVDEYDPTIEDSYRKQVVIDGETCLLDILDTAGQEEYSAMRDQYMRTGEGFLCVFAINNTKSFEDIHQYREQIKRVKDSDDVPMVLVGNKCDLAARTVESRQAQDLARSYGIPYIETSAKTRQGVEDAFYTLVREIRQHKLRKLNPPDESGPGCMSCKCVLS

[3] = molecular target: GDP-bound KRAS wild-type protein (Homo sapiens, UniProt P01116); experiment: Binding to KRAS by surface plasmon resonance (SPR), Single Cycle Kinetics; conditions: GDP-bound KRAS wild-type protein, read-out: KRAS KD
GDP-bound KRAS wild-type protein, sequence (P01116 whole entry): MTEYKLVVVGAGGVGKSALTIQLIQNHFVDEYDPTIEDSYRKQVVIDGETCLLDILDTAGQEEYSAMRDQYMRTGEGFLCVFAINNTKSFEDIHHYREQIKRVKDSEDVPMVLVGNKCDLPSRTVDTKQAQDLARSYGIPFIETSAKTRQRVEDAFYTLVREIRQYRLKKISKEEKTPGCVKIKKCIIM

[4] = SPR Single Cycle Kinetics, 1:1 binding model

| SMILES | Kd ([3]; SPR, Single Cycle Kinetics) [nM] | Kd [3, 4] [nM] | Kd ([3]; SPR, Single Cycle Kinetics, 1:1 binding model) [nM] | NRAS/KRAS (ratio of KD value for NRAS to KD value for KRAS) [1] | HRAS/KRAS (ratio of KD value for HRAS to KD value for KRAS) [2] | NRAS/KRAS (ratio of KD value for NRAS to KD value for KRAS) ([1]; KD ratio class) | HRAS/KRAS (ratio of KD value for HRAS to KD value for KRAS) ([2]; KD ratio class) |
| --- | --- | --- | --- | --- | --- | --- | --- |
| CCO[C@@H]1C[C@H]2C(=O)NC3(CCC3)C(=O)N(C)[C@@H](C(CC)CC)C(=O)N(C)[C@H](C(=O)N3CCCCC3)CC(=O)N(C)[C@H]3CCCC/C=C/c4ccc(cc4)C[C@@H](C(=O)N(C)CC(=O)N[C@@H](CCc4ccc(Cl)c(Cl)c4)C(=O)N2C1)N1CC/C=C\C[C@@H](C1=O)N(C)C(=O)CN(C)C(=O)[C@H]([C@@H](C)CC)NC3=O [PP3046] | 0.39 | – | – | AA (a compound having 20 or more is denoted as AA) | A (a compound having 10 or more and less than 20 is denoted as A) | – | – |
| CCCCN1CC(=O)N(C)[C@@H](Cc2ccc(C)cc2)C(=O)N(C)CC(=O)N[C@@H](CCc2ccc(C(F)(F)F)c(Cl)c2)C(=O)N2CCC[C@H]2C(=O)NC2(CCCC2)C(=O)N(C)[C@@H](C2CCCC2)C(=O)N(C)[C@H](C(=O)N2CCOCC2)CC(=O)N(C)[C@@H](CC(C)C)C(=O)N[C@@H]([C@@H](C)CC)C(=O)N(C)CC1=O [PP0021] ([NMeL]I[Sar][NBuGly][NMePhe(4-Me)][Sar][hPhe(3-Cl-4-CF3)]P[Ac5c][NMeGly(cPent)][NMeD]-Morpholide; lactam N-11) | – | 0.65 | – | C (A compound having a KD ratio of 0.1 or more and less than 3 is denoted as C) | C (A compound having a KD ratio of 0.1 or more and less than 3 is denoted as C) | – | – |
| CCCN1C(=O)[C@@H]2CCN2C(=O)[C@H](C)N(C)C(=O)[C@H](CC)NC(=O)[C@H](CC(C)C)N(C)C(=O)C[C@@H](C(=O)N2CCOCC2)N(C)C(=O)[C@H](C2CCCC2)N(C)C(=O)C2(CCCC2)NC(=O)[C@@H]2CCCN2C(=O)[C@H](CCc2ccc(C(F)(F)F)c(Cl)c2)NC(=O)CN(C)C(=O)[C@@H]1Cc1ccc(C(F)(F)F)cc1 [PP0269] ([NMeL][Abu][NMeA][Aze][NPrPhe(4-CF3)][Sar][hPhe(3-Cl-4-CF3)]P[Ac5c][NMeGly(cPent)][NMeD]-Morpholide; lactam N-11) | – | 1.4 | – | C (A compound having a KD ratio of 0.1 or more and less than 3 is denoted as C) | B (a compound having 3 or more and less than 10 is denoted as B) | – | – |
| CCCN1C(=O)CN(C)C(=O)CN(CC)C(=O)[C@H]([C@@H](C)CC)NC(=O)[C@H](CC(C)C)N(C)C(=O)C[C@@H](C(=O)N2CCOCC2)N(C)C(=O)[C@H](C2CCCC2)N(C)C(=O)C2(CCCC2)NC(=O)[C@@H]2CC(F)(F)CN2C(=O)[C@H](CCc2ccc(C(F)(F)F)c(Cl)c2)NC(=O)CN(C)C(=O)[C@@H]1Cc1ccc(C(F)(F)F)cc1 [PP0399] ([NMeL]I[NEtG][Sar][NPrPhe(4-CF3)][Sar][hPhe(3-Cl-4-CF3)][Pro(4,4-F2)][Ac5c][NMeGly(cPent)][NMeD]-Morpholide; lactam N-11) | – | 0.33 | – | B (a compound having 3 or more and less than 10 is denoted as B) | C (A compound having a KD ratio of 0.1 or more and less than 3 is denoted as C) | – | – |

Further lines, with some results ahead:

| Kd ([3]; SPR, Single Cycle Kinetics) [nM] | Kd [3, 4] [nM] | Kd ([3]; SPR, Single Cycle Kinetics, 1:1 binding model) [nM] | SMILES | NRAS/KRAS (ratio of KD value for NRAS to KD value for KRAS) [1] | HRAS/KRAS (ratio of KD value for HRAS to KD value for KRAS) [2] | NRAS/KRAS (ratio of KD value for NRAS to KD value for KRAS) ([1]; KD ratio class) | HRAS/KRAS (ratio of KD value for HRAS to KD value for KRAS) ([2]; KD ratio class) |
| --- | --- | --- | --- | --- | --- | --- | --- |
| 0.18 | – | – | C#CC[C@H]1C(=O)N[C@@H]([C@@H](C)CC)C(=O)N(C)CC(=O)N(C)[C@H]2C/C=C\CCN(C2=O)[C@@H](Cc2ccc(C(F)(F)F)cc2)C(=O)N(C)CC(=O)N[C@@H](CCc2ccc(C(F)(F)F)c(OC)c2)C(=O)N2C[C@@H](C)C[C@H]2C(=O)NC2(CC(C)(C)C2)C(=O)N(C)[C@@H](C2CCCC2)C(=O)N(C)[C@H](C(=O)N(C)CC)CC(=O)N1C [PP2055] | A (a compound having 10 or more and less than 20 is denoted as A) | B (a compound having 3 or more and less than 10 is denoted as B) | – | – |
| – | 0.45 | – | CCCN1C(=O)CN(C)C(=O)[C@@H]2CCN2C(=O)[C@H]([C@@H](C)CC)NC(=O)[C@H](CC(C)C)N(C)C(=O)C[C@@H](C(=O)N2CCOCC2)N(C)C(=O)[C@H](C2CCCC2)N(C)C(=O)C2(CCCC2)NC(=O)[C@@H]2C[C@@H](OCC)CN2C(=O)[C@H](CCc2ccc(C(F)(F)F)c(Cl)c2)NC(=O)CN(C)C(=O)[C@@H]1Cc1ccc(C(F)(F)F)cc1 [PP0310] ([NMeL]I[Aze][Sar][NPrPhe(4-CF3)][Sar][hPhe(3-Cl-4-CF3)][Hyp](Et)[Ac5c][NMeGly(cPent)][NMeD]-Morpholide; lactam N-11) | B (a compound having 3 or more and less than 10 is denoted as B) | C (A compound having a KD ratio of 0.1 or more and less than 3 is denoted as C) | – | – |
| – | – | 0.067 | CC[C@H](C)[C@@H]1NC(=O)[C@H](CC2CC2)N(C)C(=O)C[C@@H](C(=O)N(C)CC)N(C)C(=O)[C@H](C2CCCC2)N(C)C(=O)C2(CCC2)NC(=O)[C@@H]2C[C@H](C)CN2C(=O)[C@H](CCc2cc(F)c(C(F)(F)F)c(F)c2)NC(=O)CN(C)C(=O)[C@H](Cc2ccc(C(F)(F)F)cc2)N2CC/C=C\C[C@@H](C2=O)N(C)C(=O)CN(C)C1=O [PP1537, (2S,8S,12S,14S,20S,23S,27S,30S,36S,38Z)-20-cyclopentyl-27-(cyclopropylmethyl)-8-[2-[3,5-difluoro-4-(trifluoromethyl)phenyl]ethyl]-N-ethyl-N,4,12,19,22,26,32,35-octamethyl-30-[(1S)-1-methylpropyl]-3,6,9,15,18,21,25,28,31,34,42-undecaoxo-2-[[4-(trifluoromethyl)phenyl]methyl]spiro[1,4,7,10,16,19,22,26,29,32,35-undecazatricyclo[34.5.1.0^10,14]dotetracont-38-ene-17,1′-cyclobutane]-23-carboxamide] | – | – | AA (a compound having 20 or more is denoted as AA) | A (a compound having 10 or more and less than 20 is denoted as A) |
| 0.29 | – | – | CCO[C@@H]1C[C@H]2C(=O)NC3(CC(C)(C)C3)C(=O)N(C)[C@@H](C(CC)CC)C(=O)N(C)[C@H](C(=O)N(C)C)CC(=O)N(C)[C@@H](CC3CC3)C(=O)N[C@@H]([C@@H](C)CC)C(=O)N(C)CC(=O)N(C)[C@H]3C/C=C\CCN(C3=O)[C@@H](Cc3ccc(C)cc3)C(=O)N(C)CC(=O)N[C@@H](CCc3ccc(C(F)(F)F)c(OC)c3)C(=O)N2C1 [PP2166] | A (a compound having 10 or more and less than 20 is denoted as A) | A (a compound having 10 or more and less than 20 is denoted as A) | – | – |
| – | 0.26 | – | CCCN1C(=O)[C@@H]2CCN2C(=O)[C@H](C)N(C)C(=O)[C@H]([C@@H](C)CC)NC(=O)[C@H](CC(C)C)N(C)C(=O)C[C@@H](C(=O)N2CCOCC2)N(C)C(=O)[C@H](C2CCCC2)N(C)C(=O)C2(CCC2)NC(=O)[C@@H]2CC(F)(F)CN2C(=O)[C@H](CCc2ccc(C(F)(F)F)c(Cl)c2)NC(=O)CN(C)C(=O)[C@@H]1Cc1ccc(C(F)(F)F)cc1 [PP0208] ([NMeL]I[NMeA][Aze][NPrPhe(4-CF3)][Sar][hPhe(3-Cl-4-CF3)][Pro(4,4-F2)][Ac4c][NMeGly(cPent)][NMeD]-Morpholide; lactam N-11) | C (A compound having a KD ratio of 0.1 or more and less than 3 is denoted as C) | C (A compound having a KD ratio of 0.1 or more and less than 3 is denoted as C) | – | – |
